{"source": "PubChem BioAssay (NCI)", "assay_in_all_cases": "growth of human tumour cells (NCI), 48 h", "key": {"PC-3 prostate": {"system": "PC-3 prostate"}, "NCI-H522 lung": {"system": "NCI-H522 lung"}, "SN12C renal": {"system": "SN12C renal"}, "SW-620 colon": {"system": "SW-620 colon"}, "SK-MEL-28 melanoma": {"system": "SK-MEL-28 melanoma"}, "IGROV1 ovarian": {"system": "IGROV1 ovarian"}, "CCRF-CEM leukemia": {"system": "CCRF-CEM leukemia"}, "OVCAR-8 ovarian": {"system": "OVCAR-8 ovarian"}, "LOX IMVI melanoma": {"system": "LOX IMVI melanoma"}, "786-0 renal": {"system": "786-0 renal"}}, "note": "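A five-concentration, 48-hour dose response in 96-well plates underlies each endpoint, interpolated linearly between surrounding concentrations. GI50 is the concentration that inhibits growth by half. At the TGI there is no net growth.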"}
{"smiles": "O=C(O)CCCSc1nc2ccccc2s1", "values": [{"measurement": "TGI", "setting": "PC-3 prostate", "result": "> 100", "unit": "µM"}, {"measurement": "TGI", "setting": "NCI-H522 lung", "result": "> 100", "unit": "µM"}, {"measurement": "TGI", "setting": "SN12C renal", "result": "> 100", "unit": "µM"}, {"measurement": "TGI", "setting": "SW-620 colon", "result": "> 100", "unit": "µM"}, {"measurement": "TGI", "setting": "SK-MEL-28 melanoma", "result": "> 100", "unit": "µM"}, {"measurement": "TGI", "setting": "IGROV1 ovarian", "result": "> 100", "unit": "µM"}, {"measurement": "TGI", "setting": "CCRF-CEM leukemia", "result": "> 100", "unit": "µM"}, {"measurement": "TGI", "setting": "OVCAR-8 ovarian", "result": "> 100", "unit": "µM"}, {"measurement": "TGI", "setting": "LOX IMVI melanoma", "result": "> 100", "unit": "µM"}, {"measurement": "TGI", "setting": "786-0 renal", "result": "> 100", "unit": "µM"}]}
{"smiles": "Nc1ccn(C2CC(O)C(CO)O2)c(=O)n1", "note": "(stereo not given)", "values": [{"measurement": "GI50", "setting": "PC-3 prostate", "result": "> 5000", "unit": "µM"}, {"measurement": "TGI", "setting": "PC-3 prostate", "result": "> 5000", "unit": "µM"}, {"measurement": "GI50", "setting": "NCI-H522 lung", "result": "> 5000", "unit": "µM"}, {"measurement": "TGI", "setting": "NCI-H522 lung", "result": "> 5000", "unit": "µM"}, {"measurement": "GI50", "setting": "SN12C renal", "result": "> 5000", "unit": "µM"}, {"measurement": "TGI", "setting": "SN12C renal", "result": "> 5000", "unit": "µM"}, {"measurement": "GI50", "setting": "SW-620 colon", "result": "> 5000", "unit": "µM"}, {"measurement": "TGI", "setting": "SW-620 colon", "result": "> 5000", "unit": "µM"}, {"measurement": "GI50", "setting": "SK-MEL-28 melanoma", "result": "> 5000", "unit": "µM"}, {"measurement": "TGI", "setting": "SK-MEL-28 melanoma", "result": "> 5000", "unit": "µM"}, {"measurement": "GI50", "setting": "IGROV1 ovarian", "result": "> 5000", "unit": "µM"}, {"measurement": "TGI", "setting": "IGROV1 ovarian", "result": "> 5000", "unit": "µM"}, {"measurement": "GI50", "setting": "CCRF-CEM leukemia", "result": "> 5000", "unit": "µM"}, {"measurement": "TGI", "setting": "CCRF-CEM leukemia", "result": "> 5000", "unit": "µM"}, {"measurement": "GI50", "setting": "OVCAR-8 ovarian", "result": "> 5000", "unit": "µM"}, {"measurement": "TGI", "setting": "OVCAR-8 ovarian", "result": "> 5000", "unit": "µM"}, {"measurement": "GI50", "setting": "LOX IMVI melanoma", "result": "> 5000", "unit": "µM"}, {"measurement": "TGI", "setting": "LOX IMVI melanoma", "result": "> 5000", "unit": "µM"}, {"measurement": "GI50", "setting": "786-0 renal", "result": "> 5000", "unit": "µM"}, {"measurement": "TGI", "setting": "786-0 renal", "result": "> 5000", "unit": "µM"}]}
{"smiles": "CCCCCCCCCCCC[n+]1ccccc1", "values": [{"measurement": "GI50", "setting": "PC-3 prostate", "result": 0.374, "unit": "µM"}, {"measurement": "TGI", "setting": "PC-3 prostate", "result": 2.76, "unit": "µM"}, {"measurement": "GI50", "setting": "NCI-H522 lung", "result": 0.665, "unit": "µM"}, {"measurement": "TGI", "setting": "NCI-H522 lung", "result": 2.84, "unit": "µM"}, {"measurement": "GI50", "setting": "SN12C renal", "result": 1.63, "unit": "µM"}, {"measurement": "TGI", "setting": "SN12C renal", "result": 4.11, "unit": "µM"}, {"measurement": "GI50", "setting": "SW-620 colon", "result": 2, "unit": "µM"}, {"measurement": "TGI", "setting": "SW-620 colon", "result": 10.5, "unit": "µM"}, {"measurement": "GI50", "setting": "SK-MEL-28 melanoma", "result": 1.68, "unit": "µM"}, {"measurement": "TGI", "setting": "SK-MEL-28 melanoma", "result": 5.12, "unit": "µM"}, {"measurement": "GI50", "setting": "IGROV1 ovarian", "result": 1, "unit": "µM"}, {"measurement": "TGI", "setting": "IGROV1 ovarian", "result": 2.85, "unit": "µM"}, {"measurement": "GI50", "setting": "CCRF-CEM leukemia", "result": 1.34, "unit": "µM"}, {"measurement": "TGI", "setting": "CCRF-CEM leukemia", "result": 8.55, "unit": "µM"}, {"measurement": "GI50", "setting": "OVCAR-8 ovarian", "result": 1.03, "unit": "µM"}, {"measurement": "TGI", "setting": "OVCAR-8 ovarian", "result": 5.28, "unit": "µM"}, {"measurement": "GI50", "setting": "LOX IMVI melanoma", "result": 1.17, "unit": "µM"}, {"measurement": "TGI", "setting": "LOX IMVI melanoma", "result": 2.72, "unit": "µM"}, {"measurement": "GI50", "setting": "786-0 renal", "result": 1.48, "unit": "µM"}, {"measurement": "TGI", "setting": "786-0 renal", "result": 3.42, "unit": "µM"}]}
{"smiles": "CN1CCN(Cc2ccc(NC(=O)c3nc4ccc5[nH]ncc5c4c4c3CCC4)cc2C(F)(F)F)CC1", "values": [{"measurement": "GI50", "setting": "PC-3 prostate", "result": 0.926, "unit": "µM"}, {"measurement": "TGI", "setting": "PC-3 prostate", "result": 2.12, "unit": "µM"}, {"measurement": "GI50", "setting": "NCI-H522 lung", "result": 0.981, "unit": "µM"}, {"measurement": "TGI", "setting": "NCI-H522 lung", "result": 2.31, "unit": "µM"}, {"measurement": "GI50", "setting": "SN12C renal", "result": 0.873, "unit": "µM"}, {"measurement": "TGI", "setting": "SN12C renal", "result": 1.64, "unit": "µM"}, {"measurement": "GI50", "setting": "SW-620 colon", "result": 0.975, "unit": "µM"}, {"measurement": "TGI", "setting": "SW-620 colon", "result": 2.03, "unit": "µM"}, {"measurement": "GI50", "setting": "SK-MEL-28 melanoma", "result": 0.899, "unit": "µM"}, {"measurement": "TGI", "setting": "SK-MEL-28 melanoma", "result": 1.62, "unit": "µM"}, {"measurement": "GI50", "setting": "IGROV1 ovarian", "result": 0.907, "unit": "µM"}, {"measurement": "TGI", "setting": "IGROV1 ovarian", "result": 1.7, "unit": "µM"}, {"measurement": "GI50", "setting": "CCRF-CEM leukemia", "result": 1.25, "unit": "µM"}, {"measurement": "TGI", "setting": "CCRF-CEM leukemia", "result": 3.64, "unit": "µM"}, {"measurement": "GI50", "setting": "OVCAR-8 ovarian", "result": 1.05, "unit": "µM"}, {"measurement": "TGI", "setting": "OVCAR-8 ovarian", "result": 2.22, "unit": "µM"}, {"measurement": "GI50", "setting": "LOX IMVI melanoma", "result": 0.832, "unit": "µM"}, {"measurement": "TGI", "setting": "LOX IMVI melanoma", "result": 1.54, "unit": "µM"}, {"measurement": "GI50", "setting": "786-0 renal", "result": 0.859, "unit": "µM"}, {"measurement": "TGI", "setting": "786-0 renal", "result": 1.56, "unit": "µM"}]}
{"smiles": "C#C[C@@]1(O)[C@@H](CO)O[C@@H](n2ccc3c(N)ncnc32)[C@@H]1O", "values": [{"measurement": "GI50", "setting": "PC-3 prostate", "result": 0.808, "unit": "µM"}, {"measurement": "TGI", "setting": "PC-3 prostate", "result": 3.54, "unit": "µM"}, {"measurement": "GI50", "setting": "NCI-H522 lung", "result": 0.37, "unit": "µM"}, {"measurement": "TGI", "setting": "NCI-H522 lung", "result": 3.82, "unit": "µM"}, {"measurement": "GI50", "setting": "SN12C renal", "result": 0.798, "unit": "µM"}, {"measurement": "TGI", "setting": "SN12C renal", "result": 3.91, "unit": "µM"}, {"measurement": "GI50", "setting": "SW-620 colon", "result": 0.493, "unit": "µM"}, {"measurement": "TGI", "setting": "SW-620 colon", "result": 12.7, "unit": "µM"}, {"measurement": "GI50", "setting": "SK-MEL-28 melanoma", "result": 3.99, "unit": "µM"}, {"measurement": "TGI", "setting": "SK-MEL-28 melanoma", "result": 20.2, "unit": "µM"}, {"measurement": "GI50", "setting": "IGROV1 ovarian", "result": 1.43, "unit": "µM"}, {"measurement": "TGI", "setting": "IGROV1 ovarian", "result": 5.85, "unit": "µM"}, {"measurement": "GI50", "setting": "CCRF-CEM leukemia", "result": 2.3, "unit": "µM"}, {"measurement": "TGI", "setting": "CCRF-CEM leukemia", "result": "> 100", "unit": "µM"}, {"measurement": "GI50", "setting": "OVCAR-8 ovarian", "result": 1.03, "unit": "µM"}, {"measurement": "TGI", "setting": "OVCAR-8 ovarian", "result": 4.11, "unit": "µM"}, {"measurement": "GI50", "setting": "LOX IMVI melanoma", "result": 0.667, "unit": "µM"}, {"measurement": "TGI", "setting": "LOX IMVI melanoma", "result": 2.05, "unit": "µM"}, {"measurement": "GI50", "setting": "786-0 renal", "result": 1.63, "unit": "µM"}, {"measurement": "TGI", "setting": "786-0 renal", "result": 6.15, "unit": "µM"}]}
{"smiles": "CC1(C)N=C(N)N=C(N)N1c1cccc(CCCCc2ccccc2)c1", "values": [{"measurement": "GI50", "setting": "PC-3 prostate", "result": 0.0497, "unit": "µM"}, {"measurement": "TGI", "setting": "PC-3 prostate", "result": 3.09, "unit": "µM"}, {"measurement": "GI50", "setting": "NCI-H522 lung", "result": 0.691, "unit": "µM"}, {"measurement": "TGI", "setting": "NCI-H522 lung", "result": 13.7, "unit": "µM"}, {"measurement": "GI50", "setting": "SN12C renal", "result": 0.427, "unit": "µM"}, {"measurement": "TGI", "setting": "SN12C renal", "result": 12.3, "unit": "µM"}, {"measurement": "GI50", "setting": "SW-620 colon", "result": 0.0532, "unit": "µM"}, {"measurement": "TGI", "setting": "SW-620 colon", "result": 16.4, "unit": "µM"}, {"measurement": "GI50", "setting": "SK-MEL-28 melanoma", "result": 0.894, "unit": "µM"}, {"measurement": "TGI", "setting": "SK-MEL-28 melanoma", "result": 15.6, "unit": "µM"}, {"measurement": "GI50", "setting": "IGROV1 ovarian", "result": 0.135, "unit": "µM"}, {"measurement": "TGI", "setting": "IGROV1 ovarian", "result": 10.1, "unit": "µM"}, {"measurement": "GI50", "setting": "CCRF-CEM leukemia", "result": 0.123, "unit": "µM"}, {"measurement": "TGI", "setting": "CCRF-CEM leukemia", "result": 7.04, "unit": "µM"}, {"measurement": "GI50", "setting": "OVCAR-8 ovarian", "result": 0.262, "unit": "µM"}, {"measurement": "TGI", "setting": "OVCAR-8 ovarian", "result": 16, "unit": "µM"}, {"measurement": "GI50", "setting": "LOX IMVI melanoma", "result": 0.062, "unit": "µM"}, {"measurement": "TGI", "setting": "LOX IMVI melanoma", "result": 14.9, "unit": "µM"}, {"measurement": "GI50", "setting": "786-0 renal", "result": 0.518, "unit": "µM"}, {"measurement": "TGI", "setting": "786-0 renal", "result": 16.4, "unit": "µM"}]}
